Data: patent US6624157B2, “Thiadioxobenzodiazepine inhibitors of farnesyl protein transferase” (Bristol-Myers Squibb Company, priority 1996, dated 2003)
Counter-ions that a name gives are not always drawn.

| melting point [°C] | SMILES |
| --- | --- |
| 128 | O=S1(=O)c2ccccc2N(Cc2cnc[nH]2)CCN1Cc1cccc2ccccc12 (as salt: hydrochloride) [Example 1, 2,3,4,5-Tetrahydro-5-(1H-imidazol-4-ylmethyl)-2-(1-naphthalenylmethyl)-1,2,5-benzothiadiazepine, 1,1-dioxide, monohydrochloride] |
| 95 | O=S1(=O)c2ccccc2N(Cc2cnc[nH]2)CCN1CCc1ccccc1 (as salt: hydrochloride) [Example 2, 2,3,4,5-Tetrahydro-5-(1H-imidazol-4-ylmethyl)-2-(2-phenylethyl)-1,2,5-benzothiadiazepine, 1,1-dioxide, monohydrochloride] |
| 180 | O=S1(=O)NC(Cc2ccccc2)CN(Cc2cnc[nH]2)c2ccc(Br)cc21 (stereo not shown) (as salt: hydrochloride) [Example 9, N-[2,3,4,5-Tetrahydro-8-bromo-5-(1H-imidazol-4-ylmethyl)-3-(phenylmethyl)-1,2,5-benzothiadiazepine, 1,1-dioxide, monohydrochloride] |
| 140 | CN1C(Cc2ccccc2)CN(Cc2cnc[nH]2)c2ccc(Br)cc2S1(=O)=O (stereo not shown) (as salt: hydrochloride) [Example 10, 2,3,4,5-Tetrahydro-8-bromo-2-methyl-5-(1H-imidazol-4-ylmethyl)-3-(phenylmethyl)-1,2,5-benzothiadiazepine, 1,1-dioxide, monohydrochloride] |
